Measurements from patent US20230373985A1 (Origenis Gmbh, priority 2020, published 2023).

What was measured:
[1] = target: T1, wt human TYK2, catalytic site (Homo sapiens, UniProt P29597); experiment: HTRF KinEASE assay, TYK2; assay type: biochemical; settings: 1 μM ATP; read-out: IC50, Activity Toward TYK2
T1 construct: wt human TYK2, catalytic site; purchased SignalChem
T1 sequence (P29597 897-1176 limits assumed): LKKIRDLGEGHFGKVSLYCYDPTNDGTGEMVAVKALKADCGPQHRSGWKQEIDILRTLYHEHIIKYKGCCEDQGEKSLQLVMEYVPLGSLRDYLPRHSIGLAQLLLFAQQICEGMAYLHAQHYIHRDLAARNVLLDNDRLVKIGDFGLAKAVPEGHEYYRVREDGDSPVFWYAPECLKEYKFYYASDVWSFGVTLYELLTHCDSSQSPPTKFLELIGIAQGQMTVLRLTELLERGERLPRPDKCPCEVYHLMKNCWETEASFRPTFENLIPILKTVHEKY
In short: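 Kinase reaction run at room temperature for at least 30 min: 2 nM TYK2 with 1 μM ATP, or 1 nM JAK2 with 100 μM ATP, each with 1 μM biotin-TK substrate. Phosphorylation detected by HTRF (60 min antibody/XL665) and evaluated from emission ratios.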

[2] = target: T2, wt human NUAK1, full length (Homo sapiens, UniProt O60285); experiment: TR-FRET LanthaScreen Eu Kinase Binding Assay, NUAK1; settings: read-out: IC50, Activity Toward NUAK1
T2 construct: 8 nM wt human NUAK1, full length (ThermoFisher/USA); purchased ThermoFisher
T2 sequence (O60285 1-661): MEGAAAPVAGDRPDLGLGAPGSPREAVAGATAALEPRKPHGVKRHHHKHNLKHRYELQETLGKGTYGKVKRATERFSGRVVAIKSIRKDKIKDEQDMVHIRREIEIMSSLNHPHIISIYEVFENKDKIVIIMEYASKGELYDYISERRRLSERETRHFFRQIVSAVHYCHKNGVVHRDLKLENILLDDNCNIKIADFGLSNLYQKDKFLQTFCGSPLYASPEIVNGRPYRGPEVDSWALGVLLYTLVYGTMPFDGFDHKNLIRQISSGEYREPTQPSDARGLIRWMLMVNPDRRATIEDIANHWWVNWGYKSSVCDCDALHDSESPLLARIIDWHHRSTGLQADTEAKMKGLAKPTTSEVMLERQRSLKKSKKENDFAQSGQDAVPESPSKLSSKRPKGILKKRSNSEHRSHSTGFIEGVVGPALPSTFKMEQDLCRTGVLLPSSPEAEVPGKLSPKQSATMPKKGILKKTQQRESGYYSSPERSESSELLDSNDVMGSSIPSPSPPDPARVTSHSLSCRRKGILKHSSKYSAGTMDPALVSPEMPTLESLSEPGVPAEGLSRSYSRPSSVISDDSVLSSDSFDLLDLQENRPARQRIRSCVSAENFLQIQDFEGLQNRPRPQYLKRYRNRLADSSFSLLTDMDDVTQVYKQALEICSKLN
In short: (§1)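 Each kinase was incubated with compound, 2 nM europium-labelled antibody and Tracer 236 for one hour at room temperature before plate reading. LRRK2 wt and G2019S used 5 nM protein and 10 nM tracer; NUAK1 used 8 nM protein and 5 nM tracer.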

[3] = target: T3, wt human JAK1, catalytic site (Homo sapiens, UniProt P23458); experiment: HTRF KinEASE assay, JAK1; assay type: biochemical; settings: 2.5 μM ATP; read-out: IC50, Activity Toward JAK1
T3 construct: wt human JAK1, catalytic site; purchased ThermoFisher
In short: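 Compounds in DMSO dilution were mixed with kinase, biotin-TK substrate and ATP and reacted for ≥30 min at room temperature. Detection reagents (antibody, streptavidin-XL665) were read 60 min later as HTRF, with emission ratios analysed per KinEASE protocol.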

[4] = target: T4, wt human JAK2, catalytic site (Homo sapiens, UniProt O60674); experiment: HTRF KinEASE assay, JAK2; assay type: biochemical; settings: assay format not given (Z'-LYTE or HTRF KinEASE); read-out: IC50, Activity Toward JAK2
T4 construct: wt human JAK2, catalytic site; purchased SignalChem
Experimental: Basic protocol for HTRF KinEASE assay (Cisbio/FRA) inhibitor studies involved two steps: • Enzymatic step: Addition of 4 μL of test compound in corresponding DMSO dilutions, 4 μL of kinase/substrate mixture, 2 μL of ATP into 384 well small volume plates. Incubation for at least 30 minutes at room temperature. • Detection step: Addition of 5 μL antibody and 5 μL streptavidin-XL665, read plate after 60 minutes. Data analysis of emission ratios according KinEASE assay protocol.
(§2) Kinase and assay components were adjusted to final concentrations according to kit protocol. For TYK2: 2 nM wt human TYK2, catalytic site (SignalChem/CAN), 1 μM HTRF KinEASE-TK Substrate-biotin, 1 μM ATP in 1× Kinase Buffer. For JAK1: 4 nM wt human JAK1, catalytic site (ThermoFisher/USA), 1 μM HTRF KinEASE-TK Substrate-biotin, 2.5 μM ATP in 1× Kinase Buffer. For JAK2: 1 nM wt human JAK2, catalytic site (SignalChem/CAN), 1 μM HTRF KinEASE-TK Substrate-biotin, 100 μM ATP in 1× Kinase Buffer.
as §2

[5] = target: T5, wt human LRRK2, catalytic site (Homo sapiens, UniProt Q5S007); experiment: TR-FRET LanthaScreen Eu Kinase Binding Assay, LRRK2 wt; settings: one range stated for wt and G2019, read-out: IC50, Activity Toward LRRK2(Wt)
T5 construct: 5 nM wt human LRRK2, catalytic site; purchased ThermoFisher
In short: as §1

[6] = target: T6, G2019S human LRRK2, catalytic site (Homo sapiens, UniProt Q5S007, G2019S); experiment: TR-FRET LanthaScreen Eu Kinase Binding Assay, LRRK2 G2019S; settings: LRRK2(G2019); one range stated for wt and G2019; read-out: IC50, Activity Toward LRRK2(G2019)
T6 construct: G2019S human LRRK2, catalytic site; purchased ThermoFisher
In short: as §1

T6 sequence (Q5S007 970-2527 G2019S limits assumed): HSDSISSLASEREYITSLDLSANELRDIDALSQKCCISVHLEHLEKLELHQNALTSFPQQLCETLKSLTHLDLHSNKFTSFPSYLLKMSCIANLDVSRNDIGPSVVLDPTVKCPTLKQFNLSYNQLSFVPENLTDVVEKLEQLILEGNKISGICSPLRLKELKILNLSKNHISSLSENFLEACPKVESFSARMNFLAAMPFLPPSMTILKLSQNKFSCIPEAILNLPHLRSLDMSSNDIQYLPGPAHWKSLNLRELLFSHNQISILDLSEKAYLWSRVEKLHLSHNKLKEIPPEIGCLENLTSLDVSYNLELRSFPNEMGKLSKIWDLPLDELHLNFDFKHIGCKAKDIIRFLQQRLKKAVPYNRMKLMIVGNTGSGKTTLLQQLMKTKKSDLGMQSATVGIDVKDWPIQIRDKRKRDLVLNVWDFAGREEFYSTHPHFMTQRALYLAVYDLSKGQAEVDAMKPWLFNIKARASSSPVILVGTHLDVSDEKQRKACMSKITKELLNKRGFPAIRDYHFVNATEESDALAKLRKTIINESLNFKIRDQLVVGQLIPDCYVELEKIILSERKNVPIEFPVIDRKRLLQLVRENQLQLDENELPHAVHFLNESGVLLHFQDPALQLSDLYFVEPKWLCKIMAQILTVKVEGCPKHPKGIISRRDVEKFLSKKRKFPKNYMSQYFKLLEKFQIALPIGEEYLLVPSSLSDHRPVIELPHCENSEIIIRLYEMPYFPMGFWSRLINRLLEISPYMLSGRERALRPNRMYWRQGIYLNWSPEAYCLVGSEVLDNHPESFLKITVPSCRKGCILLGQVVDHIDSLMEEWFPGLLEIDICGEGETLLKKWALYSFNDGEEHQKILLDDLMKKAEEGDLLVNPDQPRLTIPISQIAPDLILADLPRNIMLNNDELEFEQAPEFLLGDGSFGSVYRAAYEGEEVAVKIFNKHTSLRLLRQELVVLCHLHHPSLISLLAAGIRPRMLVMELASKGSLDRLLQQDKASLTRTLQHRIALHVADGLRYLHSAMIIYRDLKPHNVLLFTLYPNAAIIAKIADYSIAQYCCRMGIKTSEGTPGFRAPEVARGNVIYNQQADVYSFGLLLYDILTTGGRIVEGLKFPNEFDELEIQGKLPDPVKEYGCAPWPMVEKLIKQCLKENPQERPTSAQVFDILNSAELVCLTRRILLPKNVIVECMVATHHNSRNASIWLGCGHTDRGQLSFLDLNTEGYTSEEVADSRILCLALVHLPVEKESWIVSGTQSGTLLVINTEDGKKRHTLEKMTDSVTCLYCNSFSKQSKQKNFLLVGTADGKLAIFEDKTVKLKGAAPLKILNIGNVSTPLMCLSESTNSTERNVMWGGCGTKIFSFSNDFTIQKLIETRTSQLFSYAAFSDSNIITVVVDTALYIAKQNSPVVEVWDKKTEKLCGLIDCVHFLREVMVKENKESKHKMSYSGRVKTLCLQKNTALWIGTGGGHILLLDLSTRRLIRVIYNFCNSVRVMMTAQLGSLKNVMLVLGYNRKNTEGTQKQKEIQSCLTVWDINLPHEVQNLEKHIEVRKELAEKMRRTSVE
T5 sequence (Q5S007 970-2527 limits assumed): as the sequence (Q5S007 970-2527 G2019S limits assumed) above, with S1050G counted along it
T4 sequence (O60674 849-1124 limits assumed): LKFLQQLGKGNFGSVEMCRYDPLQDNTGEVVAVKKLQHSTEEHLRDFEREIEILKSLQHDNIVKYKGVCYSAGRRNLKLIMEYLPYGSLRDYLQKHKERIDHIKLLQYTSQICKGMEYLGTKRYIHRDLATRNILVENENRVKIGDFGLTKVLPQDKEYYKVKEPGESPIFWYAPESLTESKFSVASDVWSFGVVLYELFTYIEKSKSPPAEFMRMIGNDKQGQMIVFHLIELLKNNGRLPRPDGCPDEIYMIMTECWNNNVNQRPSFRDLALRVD
T3 sequence (P23458 875-1153 limits assumed): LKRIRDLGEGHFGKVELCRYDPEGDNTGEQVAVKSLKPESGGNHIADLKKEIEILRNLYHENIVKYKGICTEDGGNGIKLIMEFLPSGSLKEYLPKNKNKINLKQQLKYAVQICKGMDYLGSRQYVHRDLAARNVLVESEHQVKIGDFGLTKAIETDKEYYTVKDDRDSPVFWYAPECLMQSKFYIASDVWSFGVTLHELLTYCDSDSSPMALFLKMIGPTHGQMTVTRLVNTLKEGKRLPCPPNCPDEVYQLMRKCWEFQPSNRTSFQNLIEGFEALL

| SMILES | IC50 [1] | IC50 [2] | IC50 [3] | IC50 [4] | IC50 [5] | IC50 [6] |
| --- | --- | --- | --- | --- | --- | --- |
| NC(=O)c1nn(-c2c(Cl)cccc2Cl)nc1Nc1ccc(C(=O)N2CCOCC2)cc1 [compound 101, 2-(2,6-Dichloro-phenyl)-5-[4-(morpholine-4-carbonyl)-phenylamino]-2H-[1,2,3]triazole-4-carboxylic acid amide] | < 10 nM | 100 to 1000 nM | < 10 nM | 100 to 1000 nM | – | – |
| CN1CCN(C(=O)c2ccc(Nc3nn(-c4c(Cl)cccc4Cl)nc3C(N)=O)cc2)CC1 [compound 102, 2-(2,6-Dichloro-phenyl)-5-[4-(4-methyl-piperazine-1-carbonyl)-phenylamino]-2H-[1,2,3]triazole-4-carboxylic acid amide] | < 10 nM | 100 to 1000 nM | < 10 nM | 100 to 1000 nM | – | – |
| NC(=O)c1nn(-c2c(Cl)cccc2Cl)nc1Nc1ccc(-c2nnn[nH]2)cc1 [compound 103, 2-(2,6-Dichloro-phenyl)-5-[4-(1H-tetrazol-5-yl)-phenylamino]-2H-[1,2,3]triazole-4-carboxylic acid amide] | 10 to 100 nM | 100 to 1000 nM | 10 to 100 nM | 100 to 1000 nM | – | – |
| Cn1nnnc1-c1ccc(Nc2nn(-c3c(Cl)cccc3Cl)nc2C(N)=O)cc1 [compound 104] | < 10 nM | 100 to 1000 nM | 10 to 100 nM | 100 to 1000 nM | – | – |
| CN(C)[C@H]1CCN(C(=O)c2ccc(Nc3nn(-c4c(Cl)cccc4Cl)nc3C(N)=O)cc2)C1 [compound 105, 2-(2,6-Dichloro-phenyl)-5-[4-((S)-3-dimethylamino-pyrrolidine-1-carbonyl)-phenylamino]-2H-[1,2,3]triazole-4-carboxylic acid amide] | < 10 nM | 100 to 1000 nM | < 10 nM | 100 to 1000 nM | – | – |
| NC(=O)c1nn(-c2c(Cl)cccc2Cl)nc1Nc1ccc(C(=O)N2CC(F)C2)cc1 [compound 129, 2-(2,6-dichlorophenyl)-5-((4-(3-fluoroazetidine-1-carbonyl)phenyl)amino)-2H-1,2,3-triazole-4-carboxamide] | < 10 nM | – | < 10 nM | 100 to 1000 nM | 100 to 1000 nM | 100 to 1000 nM |
| Cc1cnnn1-c1ccc(Nc2nn(-c3c(Cl)cccc3Cl)nc2C(N)=O)cc1 [compound 131, 2-(2,6-dichlorophenyl)-5-((4-(5-methyl-1H-1,2,3-triazol-1-yl)phenyl)amino)-2H-1,2,3-triazole-4-carboxamide] | < 10 nM | – | 10 to 100 nM | 100 to 1000 nM | 100 to 1000 nM | 100 to 1000 nM |
| CCc1cnncc1-c1ccc(Nc2cn(-c3c(Cl)cccc3Cl)nc2C(N)=O)cc1 [compound 322, 1-(2,6-dichlorophenyl)-4-((4-(5-ethylpyridazin-4-yl)phenyl)amino)-1H-pyrazole-3-carboxamide] | 10 to 100 nM | – | 10 to 100 nM | 100 to 1000 nM | 100 to 1000 nM | 100 to 1000 nM |
| NC(=O)c1nn(-c2c(Cl)cccc2Cl)cc1Nc1ccc(-n2ncnc2C2COC2)cc1 [compound 347, 1-(2,6-dichlorophenyl)-4-((4-(5-(oxetan-3-yl)-1H-1,2,4-triazol-1-yl)phenyl)amino)-1H-pyrazole-3-carboxamide] | < 10 nM | – | 10 to 100 nM | 100 to 1000 nM | 100 to 1000 nM | 100 to 1000 nM |
| CCn1cnnc1-c1ccc(Nc2cn(-c3c(Cl)cc(F)cc3Cl)nc2C(N)=O)cc1 [compound 414, 1-(2,6-dichloro-4-fluorophenyl)-4-((4-(4-ethyl-4H-1,2,4-triazol-3-yl)phenyl)amino)-1H-pyrazole-3-carboxamide] | < 10 nM | – | 10 to 100 nM | 100 to 1000 nM | 100 to 1000 nM | 100 to 1000 nM |
| NC(=O)c1nn(-c2c(Cl)cccc2Cl)cc1Nc1ccc(C(=O)N2CC(F)C2)cc1 [compound 425, 1-(2,6-dichlorophenyl)-4-((4-(3-fluoroazetidine-1-carbonyl)phenyl)amino)-1H-pyrazole-3-carboxamide] | < 10 nM | – | 10 to 100 nM | 100 to 1000 nM | 100 to 1000 nM | 100 to 1000 nM |
